Square brackets hold non-standard residues; d marks the D form. Ends that are not written are not given here. 1Nal = N[C@@H](Cc1cccc2ccccc12)C(=O)O; d1Nal = N[C@H](Cc1cccc2ccccc12)C(=O)O; Pal = not defined here
Legend:
[1] = 3H-heparin binding assay (affinity and capacity); details: for Heparin Capacity: heparin bound at saturation; for Kd: read-out: Heparin Affinity
Experimental: Briefly, each fragment was added to wells of a 96-well microtiter plate having a polyvinylidene difluoride membrane (Immunobilon-P, Millipore, Bedford, Mass.) disposed at the bottom of the wells. […] Positive control wells contained varying amounts of rBPI23. […] DuPont-NEN, Wilmington, Del.) were made in the blocking buffer and incubated in the BPI peptide-containing wells for one hour at 4° C. The unbound heparin was aspirated and the wells were washed three times with blocking buffer, dried and removed for quantitation in a liquid scintillation counter (Model 1217, LKB, Gaithersburg, Md.). Although BSA in the blocking buffer did show a low affinity and capacity to bind heparin, this was considered physiologically irrelevant and the background was routinely subtracted from the test compound signal.

[2] = system: rough mutant E. coli J5 bacteria; experiment: Radial diffusion bactericidal assay, E. coli J5; format: cell-based; details: radial diffusion; PROBIT analysis; E. coli J5 (rough)
Experimental: BPI proteolytic fragments produced according to Example 1 were screened for bactericidal effects using rough mutant E. coli J5 bacteria in a radial diffusion assay. Specifically, an overnight culture of E. coli J5 was diluted 1:50 into fresh tryptic soy broth and incubated for 3 hours at 37° C. to attain log phase growth of the culture. Bacteria were then pelleted at 3,000 rpm for 5 minutes in a Sorvall RT6000B centrifuge (Sorvall Instruments, Newton, Conn.). 5 mL of 10 mM sodium phosphate buffer (pH 7.4) was added and the preparation was re-pelleted. […] The bacteria were diluted to 4×10^6 CFU/mL in 10 mL of molten underlayer agarose (at approximately 45° C.) and inverted repeatedly to mix in 15 mL polypropylene tubes conventionally used for this purpose.
The entire contents of such tubes were then poured into a level square petri dish and distributed evenly by rocking the dish side-to-side. […] A series of wells were then punched into the hardened agarose using a sterile 3 mm punch attached to a vacuum apparatus. The punch was sterilized with 100% alcohol and allowed to air dry prior to use to avoid contaminating the bacterial culture.
5 or 10 μL of each of the BPI fragments were carefully pipetted into each well. As a negative control, dilution buffer (pH 8.3) was added to a separate well, and rBPI23 at concentrations of 5 μg/mL and 1 μg/mL were also added as positive controls. Each plate was incubated at 37° C. for 3 hours, and then 10 mL of molten overlayer agarose (at approximately 45° C.) was added into the level petri dish, allowed to harden and incubated overnight at 37° C. […] The bacterial zones were measured with a micrometer.

[3] = system: E. coli 0111:B4 (smooth) bacteria; experiment: Radial diffusion bactericidal assay, E. coli 0111:B4; format: cell-based; details: radial diffusion; PROBIT analysis; E. coli O111:B4 (smooth)
Staphylococcus aureus = experiment: Radial diffusion bactericidal assay, Staphylococcus aureus; format: cell-based; details: radial diffusion; PROBIT analysis; S. aureus

| Substance | Heparin Capacity [1] | Kd [1] | pmol added to well to achieve a 30 mm^2 bactericidal zone, E. coli J5 [2] | pmol added to well to achieve a 30 mm^2 bactericidal zone, E. coli O111:B4 [3] | pmol added to well to achieve a 30 mm^2 bactericidal zone, S. aureus (Staphylococcus aureus) |
| --- | --- | --- | --- | --- | --- |
| IKISGKWDKAQKRFLK [BPI.66] | 111.6 ng | 296 nM | 5,846.50 pmol | b (no detectable activity up to 5 μg/well) | b (no detectable activity up to 5 μg/well) |
| IKISGKFKAQKRFLK [BPI.61] | 85.2 ng | 58.3 nM | 86,541.00 pmol | b (no detectable activity up to 5 μg/well) | b (no detectable activity up to 5 μg/well) |
| IKISGKWKAQERFLK [BPI.136] |  |  | 18,846.44 pmol | b (no detectable activity up to 5 μg/well) | b (no detectable activity up to 5 μg/well) |
| KSKVGWLIQLAβ-(1-naphthyl)HKK (KSKVGWLIQL[1Nal]HKK) [BPI.109] |  |  | 308.60 pmol | 44,875.41 pmol | b (no detectable activity up to 5 μg/well) |
| KSKVGWLIQLFHKW [BPI.108] |  |  | 661.05 pmol | 306,965.11 pmol | 1,413,131,872.57 pmol |
| KSKVGWLITLFHKK [BPI.106] |  |  | 427.12 pmol | 3,413.80 pmol | b (no detectable activity up to 5 μg/well) |
| KSKVKWLIQLWHKK [BPI.124] |  |  | 91.23 pmol | 3,916.32 pmol | b (no detectable activity up to 5 μg/well) |
| KWQLRSKGKIKIFKA [BPI.114] |  |  | 1,696.20 pmol | b (no detectable activity up to 5 μg/well) | b (no detectable activity up to 5 μg/well) |
| IKISGKWKAWKRAβ-(1-naphthyl)LKK (IKISGKWKAWKR[1Nal]LKK) [BPI.105] |  |  | 65.35 pmol | 206.98 pmol | 6,260.97 pmol |
| KSKVGAD-β-(1-naphthyl)LIQLFHKK (KSKVG[d1Nal]LIQLFHKK) [BPI.129] |  |  | 1,685.10 pmol | b (no detectable activity up to 5 μg/well) | b (no detectable activity up to 5 μg/well) |
| IKISGKAβ-(1-naphthyl)KAQAβ-(1-naphthyl)RFLK (IKISGK[1Nal]KAQ[1Nal]RFLK) [BPI.112] |  |  | 1,485.92 pmol | b (no detectable activity up to 5 μg/well) | b (no detectable activity up to 5 μg/well) |
| KSKVGA2-β-(1-naphthyl)LIQLFHKK (KSKVG[1Nal]LIQLFHKK; not fully specified; printed as KSKVGA2-β-(1-naphthyl)LIQLFHKK) [BPI.130] |  |  | 325.75 pmol | 4,377.92 pmol | b (no detectable activity up to 5 μg/well) |
| KSKVGFDLIQLPHKK [BPI.128] |  |  | 2,271.14 pmol | b (no detectable activity up to 5 μg/well) | b (no detectable activity up to 5 μg/well) |
| KSKVGWLIQLFWKK [BPI.107] |  |  | 384.67 pmol | 4,665.64 pmol | b (no detectable activity up to 5 μg/well) |
| Aβ-(1-naphthyl)Aβ-(1-naphthyl)RFLKF ([1Nal][1Nal]RFLKF) [BPI.140] |  |  | 84.76 pmol | 605.34 pmol | 9,977.71 pmol |
| KSKVGA(pyridyl)LIQLFHKK (KSKVG[Pal]LIQLFHKK; reading uncertain; also: printed as KSKVGA(pyridyl)LIQLFHKK) [BPI.132] |  |  | 4,505.79 pmol | b (no detectable activity up to 5 μg/well) | b (no detectable activity up to 5 μg/well) |
| KSKVGWLIQLFAβ-(1-naphthyl)KK (KSKVGWLIQLF[1Nal]KK) [BPI.110] |  |  | 812.33 pmol | 7,952.04 pmol | b (no detectable activity up to 5 μg/well) |
| IKISGKWKAQKRWLK [BPI.141] |  |  | 2,809.51 pmol | b (no detectable activity up to 5 μg/well) | b (no detectable activity up to 5 μg/well) |
| KSKVGAD-2-β-(1-naphthyl)LIQLFHKK (KSKVG[d1Nal]LIQLFHKK; not fully specified) [BPI.131] |  |  | 1,438.21 pmol | b (no detectable activity up to 5 μg/well) | b (no detectable activity up to 5 μg/well) |
| KSKVGW(p-amino)LIFLFHKK (KSKVG[p‑amino‑tryptophan]LIFLFHKK) [BPI.123] |  |  | 247.20 pmol | 6,651.23 pmol | b (no detectable activity up to 5 μg/well) |
| KSKVGWDLIQLFHKK [BPI.126] |  |  | 1,979.97 pmol | b (no detectable activity up to 5 μg/well) | b (no detectable activity up to 5 μg/well) |

Source: patent US20040023884A1, “Biologically active peptides from functional domains of bactericidal/permeability-increasing protein and uses thereof” (priority 1993, published 2004)
